Data published in patent US5356916A, “1,2,4-oxadiazole derivatives having monoamine oxidase B enzyme-inhibitory activity” (Wakamoto Pharmaceutical Co., Ltd., priority 1991, dated 1994).

Tests used:
Parkinson's disease = settings: United States and Europe; cited from earlier work
MAO-B = molecular target: T1, MAO-B (Rattus norvegicus, UniProt P19643); experiment: In vitro inhibition of monoamine oxidase B (oxygen electrode, rat liver mitochondria, substrate benzylamine); format: biochemical; settings: for IC50: rat liver mitochondria, 37° C., preincubated, substrate benzylamine (BA), read-out: IC50 MAO-B; for MAO-A/MAO-B: ratio of IC50 values MAO-A/MAO-B
T1 construct: mitochondria prepared from the liver of rats; from tissue; host or cells: rat liver mitochondria
T1 sequence (P19643 1-520): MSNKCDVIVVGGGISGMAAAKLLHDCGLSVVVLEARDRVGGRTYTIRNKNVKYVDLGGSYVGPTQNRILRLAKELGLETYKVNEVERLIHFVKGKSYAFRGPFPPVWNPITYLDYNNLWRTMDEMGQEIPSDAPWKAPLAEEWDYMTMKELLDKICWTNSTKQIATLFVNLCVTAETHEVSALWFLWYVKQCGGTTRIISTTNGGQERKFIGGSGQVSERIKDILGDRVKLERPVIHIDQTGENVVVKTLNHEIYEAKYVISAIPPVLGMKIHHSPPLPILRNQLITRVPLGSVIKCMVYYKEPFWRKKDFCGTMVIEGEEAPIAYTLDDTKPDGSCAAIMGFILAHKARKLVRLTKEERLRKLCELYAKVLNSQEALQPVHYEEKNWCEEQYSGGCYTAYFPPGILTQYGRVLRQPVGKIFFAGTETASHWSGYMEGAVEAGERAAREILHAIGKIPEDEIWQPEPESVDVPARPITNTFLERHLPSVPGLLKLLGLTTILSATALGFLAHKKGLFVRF
Procedure: (§1) The MAO-inhibitory activity of the compounds of the present invention was determined according to an MAO-inhibitory activity determining method using the oxygen electrode disclosed in K. F. Tipton et al., Biochem. J., 1968,108, pp. 95-99.
(§2) A potassium phosphate buffer solution of mitochondria prepared from the liver of rats was preincubated at 37° C. with or without a compound of the present invention and then a substrate was added to the mixture to thus initiate the reaction at that temperature while the dissolved oxygen-consuming reaction due to MAO activity in the reaction solution was monitored by the oxygen electrode. In this respect, the substrates used were serotonin (5-HT) for the MAO-A activity determination and benzylamine (BA) for the MAO-B activity determination. The MAO-inhibitory activity was evaluated in terms of an IC5.sbsb.0 value which is the concentration of a compound tested required for reducing the rate of oxygen-consuming reaction performed in the presence of the compound to 50% of that of the reaction performed in the absence of the compound.

MAO-A = molecular target: T2, MAO-A (Rattus norvegicus, UniProt P21396); experiment: In vitro inhibition of monoamine oxidase A (oxygen electrode, rat liver mitochondria, substrate serotonin); format: biochemical; settings: rat liver mitochondria, 37° C., preincubated, substrate serotonin (5-HT); read-out: IC50 MAO-A
T2 construct: mitochondria prepared from the liver of rats; from tissue; host or cells: rat liver mitochondria
T2 sequence (P21396 1-526): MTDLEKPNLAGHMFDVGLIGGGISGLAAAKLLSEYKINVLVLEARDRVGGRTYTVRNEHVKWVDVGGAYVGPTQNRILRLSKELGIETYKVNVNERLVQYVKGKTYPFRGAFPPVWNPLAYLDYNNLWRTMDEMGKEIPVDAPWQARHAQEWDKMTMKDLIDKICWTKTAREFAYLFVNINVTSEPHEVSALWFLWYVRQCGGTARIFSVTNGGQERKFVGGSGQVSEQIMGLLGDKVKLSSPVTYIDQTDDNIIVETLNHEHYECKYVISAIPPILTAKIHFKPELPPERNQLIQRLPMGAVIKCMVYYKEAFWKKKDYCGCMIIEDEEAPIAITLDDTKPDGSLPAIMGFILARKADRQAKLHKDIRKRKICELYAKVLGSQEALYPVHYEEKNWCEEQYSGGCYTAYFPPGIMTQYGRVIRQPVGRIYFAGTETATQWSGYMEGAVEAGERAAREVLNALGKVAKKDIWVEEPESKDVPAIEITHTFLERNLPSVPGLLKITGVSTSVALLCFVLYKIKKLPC
Procedure: as §1, §2

Row | Structure (SMILES) | clinical effectiveness in Parkinson's disease (in words) (Parkinson's disease) | IC50 (MAO-B) [µM] | MAO-A/MAO-B (MAO-B) | IC50 (MAO-A) [µM]
1 | C#CCN(C)C(C)Cc1ccccc1 (racemic) [d,l-Deprenil] | effectiveness of this compound has clinically been proved | – | – | –
2 | CCCN(CCC)CCCOc1ccc(-c2noc(-c3ccccc3)n2)cc1 [Example 9, 3-[4-(3-dipropylaminopropoxy)phenyl]-5-phenyl-1,2,4-oxadiazole] | – | 50 | 2 | 100
3 | CCc1nc(-c2ccc(OCCCn3ccnc3)cc2)no1 [Example 1, 3-[4-[3-(1H-imidazol-1-yl)propoxy]phenyl]-5-ethyl-1,2,4-oxadiazole] | – | 0.3 | 670 | 200
4 | CCc1nc(-c2ccc(OCCCN3CCN(C)CC3)cc2)no1 [Example 13, 3-[4-[3-(4-methylpiperazinyl)propoxy]phenyl]-5-ethyl-1,2,4-oxadiazole] | – | 100 | 1 | 100
5 | CCCc1nc(-c2ccc(OCCCn3ccnc3)cc2)no1 [Example 3, 3-[4-[3-(1H-imidazol-1-yl)propoxy]phenyl]-5-propyl-1,2,4-oxadiazole] | – | 1 | 200 | 200
